Values after ≈ are worked out from the molar mass of the structure shown. Where two headings read alike, the source gives them in different places.
How the values were obtained:
[1] = Akama et al., cited from earlier work
[2] = Visual solubility evaluation in buffer at fixed concentration of 5 mg/mL; assay type: physicochemical; details: for solubility: aqueous buffer, water solubility determined visually at fixed concentration of 5 mg/mL
Protocol: This Example illustrates the desirable solubility characteristics of the aminoflavone compounds of the present invention. In Table 2 below, the water solubility of compounds 1a-d of Table 1 are set forth at different pH with a citrate or phosphate buffer, as indicated. Solubility was determined visually at a fixed concentration of 5 mg/mL.

[3] = test system: panel of 60 different human tumor cell lines; experiment: NCI 60 cell-line human tumor screen (sulforhodamine B, 48 hour incubation); assay type: cell-based; details: FIG. 1B; several human cancer cell lines, particularly breast (MCF7), ovarian (OVCAR-5), renal (CAKI-1), colon (SW-620)
Protocol: The NCI screen consists of a panel of 60 different human tumor cell lines against which compounds are tested over a defined range of concentrations to determine the relative degree of growth inhibition or cytotoxicity against each cell line. The design and operation of the screen is such that for each compound tested, both the absolute and relative sensitivities of individual cell lines comprising the screen are sufficiently reproducible that a characteristic profile or “fingerprint” of cellular response is generated. Compounds that are active in the NCI screen show pronounced differential tumor growth-inhibitory and/or cytotoxic effects to the diverse cell lines comprising the 60 cell-line panel. The degree of differential response between the most and least sensitive lines typically may be relatively small (e.g., 2-10 fold), or occasionally as great as 3-4 orders of magnitude. […]
In the screening assay, each agent is tested over a broad concentration range against every cell line in the panel. […] Test compounds are evaluated at five 10-fold dilutions. […] Optical densities are measured on automated plate readers, followed by computerized data acquisition, processing, storage, and availability for display-and analysis. […]

[4] = pH 3, citrate buffer, read-out: Visual solubility, pH 3
[5] = pH 5, citrate buffer, read-out: Visual solubility, pH 5
[6] = pH 7, phosphate buffer, read-out: Visual solubility, pH 7
[7] = pH 3, citrate buffer, 5 mg/mL, visual

SMILES: Nc1ccc(-c2cc(=O)c3c(N)c(F)cc(F)c3o2)cc1F [5,4′-diamino-6,8,3′-trifluoroflavone]
- solubility in ethanol ([1]; ethanol, J. Med. Chem., at 2067): 1200 µg/mL (≈ 3.92 mM)
- solubility in water ([1]; water, J. Med. Chem., 41, 2056-2067 (1998)): less than 0.2 μg/mL

SMILES: Cc1c(F)c(NC(=O)CN(C)C)c2c(=O)cc(-c3ccc(NC(=O)CN(C)C)c(F)c3)oc2c1F [Compound 1d, 6,8-difluoro-7-methyl-5-(dimethylamino)acetamido-2-[4-(dimethylamino)acetamido-3-fluorophenyl]-4H-1-benzopyran-4-one]
- solubility [2, 4]: > 5000 µg/mL
- solubility [2, 5]: > 5000 µg/mL
- solubility [2, 6]: < 5000 µg/mL
- solubility at pH 3 (text summary of Table 2) [2, 7]: fully soluble
- solubility at pH 5 (text summary of Table 2) ([2]; pH 5, citrate buffer, 5 mg/mL, visual): fully soluble

SMILES: Cc1c(F)c(N)c2c(=O)cc(-c3ccc(NC(=O)[C@@H](N)CCCCN)c(F)c3)oc2c1F [Compound 1a, 5-amino-6,8-difluoro-2-(3-fluoro-4-[(L-lysyl)amino]phenyl]-7-methyl-4H-1-benzopyran-4-one]
- tumor growth-inhibiting activity (GI50 mean-graph) [3]: demonstrated tumor growth-inhibiting activity
- solubility [2, 4]: > 5000 µg/mL
- solubility [2, 5]: < 5000 µg/mL
- solubility [2, 6]: < 5000 µg/mL
- solubility at pH 3 (text summary of Table 2) [2, 7]: fully soluble

SMILES: Cc1c(F)c(N)c2c(=O)cc(-c3ccc(NC(=O)CN(C)C)c(F)c3)oc2c1F [Compound 1c, 5-amino-6,8-difluoro-7-methyl-2-[4-(dimethylamino)acetamido-3-fluorophenyl]-4H-1-benzopyran-4-one]
- solubility [2, 4]: < 5000 µg/mL
- solubility [2, 5]: < 5000 µg/mL
- solubility [2, 6]: < 5000 µg/mL

SMILES: Br.Br.Br.Cc1c(F)c(N)c2c(=O)cc(-c3ccc(NC(=O)C(N)CCCNC(=N)N)c(F)c3)oc2c1F (stereo not shown) [Compound 1b, 5-amino-2-[4-[[2-amino-5-guanidinopentanoyl]amino]-3-fluorophenyl]-6,8-difluoro-7-methyl-4H-1-benzopyran-4-one, trihydrobromide]
- solubility [2, 4]: > 5000 µg/mL
- solubility [2, 5]: < 5000 µg/mL
- solubility [2, 6]: < 5000 µg/mL
- solubility at pH 3 (text summary of Table 2) [2, 7]: fully soluble

— patent US6812246B2, “Aminoflavone compounds, compositions, and methods of use thereof” (The United States of America as represented by the …, priority 2000, dated 2004)
